What all share (assay type): cell-based
The test system of one experiment is OvCAR3 cells. Kind of experiment: Cellular proliferation / Cytotoxicity assay (Alamar Blue / Resazurin cell viability). The settings on record: Homo sapiens, OVCAR-3, 48h incubation, read-out: Anti-proliferative / Cytotoxic activity (OvCAR3 cells). Here is the method:
Wells containing untreated control cells were filled with 200 µl DMEM (Dulbecco's Modified Eagle Medium) containing 0.5vol% v:v DMSO. The cells are then incubated with the substances for 48h at 37°C in a humidified atmosphere containing 5vol% CO2. To determine the viability of the cells, 20 µl of a Resazurin solution (90mg / I) are added. […] Viabilities are expressed as % values.
(In general: Alamar Blue is a resazurin reagent that responds to reducing activity.)

The test system of experiment [1] is phosphorylated Akt protein. In words: Cellular PI3K / Akt pathway assay (phospho-Akt Ser473 sandwich ELISA). The settings on record: Homo sapiens; MCF7 cells, ß-Heregulin (20ng/ml) stimulation, 48h incubation. Here is the method:
In order to study the cellular activity of the compounds according to the present invention, an Enzyme Linked Immunosorbent Assay (ELISA)-based assay has been used specific phospho-AKT. The assay is based on a Sandwich ELISA kit (PathScan™ Phospho-Akt1 (Ser473); Cell Signaling, USA; #7160). The ELISA Kit detects endogenous levels of phosphorylated Akt protein. A phospho-Akt (Ser473) antibody (Cell Signaling, USA; #9271) has been coated onto the microwells. After incubation with cell lysates, the coated antibody captures the phosphorylated Akt protein. Following extensive washing, Akt1 monoclonal antibody (Cell Signaling, USA; #2967) is added to detect the captured phospho-Akt1 protein. HRP-linked anti-mouse antibody (HRP: horseradish peroxidase; Cell Signaling, USA; #7076) is then used to recognize the bound detection antibody. HRP substrate (= 3,3',5,5'-tetramethylbenzidine (TMB); Cell Signaling, USA; #7160) is added to develop colour. The magnitude of optical density for this developed color is proportional to the quantity of phosphorylated Akt protein. MCF7 cells (ATCC HTB-22) are seeded into 96 well fate bottom plates at a density of 10000 cells/well. 24 hours after seeding, the cells are serum starved using low-serum medium (IMEM media including 0,1% charcoal treated FCS (FCS: fetal calf serum)). […] To stimulate Akt phosphorylation, ß-Heregulin (20ng/ml ß-HRG) is added in parallel to the compounds. Wells containing unstimulated control cells (no ß-Heregulin stimulation) are incubated with or without the diluted compound. Wells containing untreated control cells (no compound) are filled with medium containing 0.5% v:v DMSO and are or are not stimulated with ß-Heregulin. Cells are harvested and lysed with brief sonification in 1x cell lysis buffer (20mM Tris (pH7.5), 150 mM NaCl, 1 mM ethylene diaminetetraacetate (EDTA), 1 mM ethylene glycolbis(2-aminoethyl)-N,N,N',N'-tetraacetic acid (EGTA), 1vol% Triton X-100, 2.5mM sodium pyrophosphate, 1 mM β-glycerolphosphate, 1 mM Na3VO4, 1µg/ml leupeptin). The lysate is centrifuged for 10 min. at 4°C and the supernatant is transferred to a new tube. 100 µl of sample diluent (0.1vol% Tween-20, 0.1vol% sodium azide in phosphate buffered saline (PBS)) are added to a microcentrifuge tube and 100 µl of cell lysate are transferred into the tube and vortexed. 100 µl of each diluted cell lysate are added to the appropriate ELISA well, and incubated overnight at 4°C. The plates are washed 4 times with 1x wash buffer (1vol% tween-20, 0.33vol% thymol, in PBS). Next 100 µl of detection antibody (Akt1 (2H10) monoclonal detection antibody; Cell Signaling, USA; #2967) are added to each well and incubation continued for 1h at 37°C. The washing procedure is repeated between each step. 100µl of secondary antibody (anti-mouse IgG HRP-linked antibody; Cell Signaling, USA; #7076) are added to each well and incubated for 30 min. at 37°C. Than, 100µl of TMB substrate (0.05% 3,3',5,5' tetramethylbenzidine, 0.1 % hydrogen peroxide, complex polypeptides in a buffered solution; Cell Signaling, USA; #7160) are added to each well and incubated for 30 min. at 25°C. Finally 100 µl of STOP solution (0.05vol% α and β unsaturated carbonyl compound) are added to each well and the plate are shaked gently. The absorbance is measured at λ =450 nm (Wallac Victor2; Perkin Elmer, USA) within 30 min. after adding the STOP solution. The analysis of the data is performed using a statistical program (Excel; Microsoft, USA). Preferred compounds show an inhibitory activity towards Akt phosphorylation below 10µM.

In the next experiment the test system is phosphorylated GSK3. Kind of experiment: Cellular pGSK3 assay (phospho-GSK3 Ser9 sandwich ELISA). The settings on record: Homo sapiens; MCF7 cells, 48h incubation, IC50 of pGSK3 inhibition. The procedure:
In order to study the cellular activity of the compounds according to the present invention, an ELISA-based assay has been established for the phosphorylated protein glycogen synthetase kinase 3 (GSK3). The assay is based on a solid phase sandwich ELISA that detects endogenous levels of phosphorylated GSK3 using a phospho-GSK3 (Ser9) specific antibody (BioSource International, Inc.; Catalog #KHO0461). After incubation with cell lysates, the coated antibody captures the phosphorylated GSK3 protein. Following extensive washing, GSK3 polyclonal antibody is added to detect the captured phospho-GSK3 protein. Secondary antibody (anti-rabbit IgG-HRP) is then used to recognize the bound detection antibody. After the second incubation and washing to remove all the excess anti-rabbit IgG-HRP, a substrate solution is added, which is acted upon by the bound enzyme to produce color. The intensity of this colored product is directly proportional to the concentration of GSK-3β [pS9] present in the original specimen. MCF7 cells (ATCC HTB-22) were seeded into 96 well fate bottom plates at a density of 10000 cells/well. After 24 h 1 µl each of the compound dilutions (test compounds were dissolved as 10 mM solutions in dimethylsulfoxide (DMSO) and subsequently diluted) were added into each well of the 96 well plates and incubated for 48h at 37°C in a humidified athmosphere containing 5% CO2. Cells were harvested and lysed in cell extraction buffer (10 mM Tris, pH 7.4, 100 mM NaCl, 1 mM EDTA, 1 mM EGTA, 1 mM NaF, 20 mM Na4P2O7, 2 mM Na3VO4, 1% Triton X-100, 10vol% glycerol, 0.1vol% SDS, 0.5vol% deoxycholate, 1 mM phenylmethylsulfonylfluorid (PMSF)). The lysate were centrifuged for 10 min. at 4°C and the supernatant were transferred to a new tube. 50 µl of sample diluent (standard diluent buffer, Biosource) were added and 100 µl of cell lysate transferred into the tube and vortexed. 100 µl of each diluted cell lysate were added to the appropriate ELISA well plate and incubated for 3h at room temperature. The plates were washed 4 times with 1x wash buffer (Biosource). 50 µl of detection antibody (GSK3 (Ser9) detection antibody; BioSource) were added to each well and incubated for 30 min. at room temperature. The washing procedure was repeated between each step. 100µl of HRP-linked secondary antibody (anti-mouse IgG HRP-linked antibody) were added to each well and incubated for 30 min. at room temperature. 100µl of TMB substrate (0.05vol% 3,3',5,5' tetramethylbenzidine, 0.1vol% hydrogen peroxide, complex polypeptides in a buffered solution; Biosource) were added to each well and incubated for 30 min. at room temperature. Finally 100 µl of Stop solution (0.05vol% α and β unsaturated carbonyl compound) were added to each well and the plate were shaked gently for a few seconds. The absorbance was measured at λ = 450 nm (Wallac Victor2; Perkin Elmer, USA) within 30 min. after adding the stop solution. The analysis of the data was performed using a statistical program (Excel; Microsoft, USA) and the IC50 of pGSK3 inhibition was determined.

For the molecule `c1ccc(-c2c(-c3ccc(CN4CCC(c5n[nH]c(-c6ccccn6)n5)CC4)cc3)nc3ncccn23)cc1` [Example 1, 3-phenyl-2-(4-{[4-(5-pyridin-2-yl-1,2,4-triazol-3-yl)piperidin-1-yl]methyl}phenyl)imidazo[1,2-a]pyrimidine], the IC50 in the experiment on OvCAR3 cells was below 10 µM; in experiment [1] it was below 1 µM; in the experiment on phosphorylated GSK3 it was 1 to 10 µM.
`c1ccc(-c2c(-c3ccc(CN4CCC(c5nc(-c6cnccn6)no5)CC4)cc3)nc3ncccn23)cc1` [Example 4, 3-phenyl-2-(4-{[4-(3-pyrazin-2-yl-1,2,4-oxadiazol-5-yl)piperidin-1-yl]methyl}phenyl)imidazo[1,2-a]pyrimidine]: the IC50 is above 10 µM in the experiment on OvCAR3 cells and 1 to 10 µM in the experiment on phosphorylated GSK3.
For `N#Cc1cccn2c(-c3ccccc3)c(-c3ccc(CN4CCC(c5n[nH]c(-c6ccccn6)n5)CC4)cc3)nc12` [Example 5, 3-phenyl-2-(4-{[4-(5-pyridin-2-yl-1,2,4-triazol-3-yl)piperidin-1-yl]methyl}phenyl)imidazo[1,2-a]pyridine-8-carbonitrile], the IC50 (in experiment [1]; in the experiment on phosphorylated GSK3) was below 1 µM each time.
In the case of `Clc1nccn2c(-c3ccccc3)c(-c3ccc(CN4CCC(c5n[nH]c(-c6ccccn6)n5)CC4)cc3)nc12` [Example 26, 8-chloro-3-phenyl-2-(4-{[4-(5-pyridin-2-yl-1,2,4-triazol-3-yl)piperidin-1-yl]methyl}phenyl)imidazo[1,2-a]pyrazine], the IC50 in the experiment with OvCAR3 cells is below 10 µM; in the experiment with phosphorylated GSK3, 1 to 10 µM.
`FC(F)(F)c1ccn2c(-c3ccccc3)c(-c3ccc(CN4CCC(c5n[nH]c(-c6ccccn6)n5)CC4)cc3)nc2n1` [Example 28, 3-phenyl-2-(4-{[4-(5-pyridin-2-yl-1,2,4-triazol-3-yl)piperidin-1-yl]methyl}phenyl)-7-(trifluoromethyl)imidazo[1,2-a]pyrimidine]: the IC50 with OvCAR3 cells was below 10 µM; in the experiment on phosphorylated GSK3, 1 to 10 µM.
On to `Clc1ccc2nc(-c3ccc(CN4CCC(c5n[nH]c(-c6ccccn6)n5)CC4)cc3)c(-c3ccccc3)n2n1` [Example 31, 6-chloro-3-phenyl-2-(4-{[4-(5-pyridin-2-yl-1,2,4-triazol-3-yl)piperidin-1-yl]methyl}phenyl)imidazo[1,2-b]pyridazine], for which the IC50 (in experiment [1]; in the experiment on phosphorylated GSK3) was below 1 µM in each case.
Turning to `c1ccc(-c2nc(C3CCN(Cc4ccc(-c5nc6ncccn6c5-c5cccs5)cc4)CC3)n[nH]2)nc1` [Example 35, 2-(4-{[4-(5-pyridin-2-yl-1,2,4-triazol-3-yl)piperidin-1-yl]methyl}phenyl)-3-(2-thienyl)imidazo[1,2-a]pyrimidine], the IC50 was below 10 µM in the experiment with OvCAR3 cells and 1 to 10 µM in the experiment on phosphorylated GSK3.
For `c1ccc(-c2nc(C3CCN(Cc4ccc(-c5nc6ncccn6c5-c5ccncc5)cc4)CC3)n[nH]2)nc1` [Example 36, 3-pyridin-4-yl-2-(4-{[4-(5-pyridin-2-yl-1,2,4-triazol-3-yl)piperidin-1-yl]methyl}phenyl)imidazo[1,2-a]pyrimidine], the IC50 with OvCAR3 cells was above 10 µM; in the experiment with phosphorylated GSK3, 1 to 10 µM.
With `NC(=O)c1cccn2c(-c3ccccc3)c(-c3ccc(CN4CCC(c5n[nH]c(-c6ccccn6)n5)CC4)cc3)nc12` [Example 40, 3-phenyl-2-(4-{[4-(5-pyridin-2-yl-1,2,4-triazol-3-yl)piperidin-1-yl]methyl}phenyl)imidazo[1,2-a]pyridine-8-carboxamide], the IC50 (in experiment [1]; in the experiment on phosphorylated GSK3) was below 1 µM throughout.
In experiment [1], `Fc1ccccc1-c1c(-c2ccc(CN3CCC(c4n[nH]c(-c5ccccn5)n4)CC3)cc2)nc2ncccn12` [Example 41, 3-(2-fluorophenyl)-2-(4-{[4-(5-pyridin-2-yl-1,2,4-triazol-3-yl)piperidin-1-yl]methyl}phenyl)imidazo[1,2-a]pyrimidine] showed an IC50 below 1 µM.
`c1ccc(-c2nc(C3CCN(Cc4ccc(-c5nc6sccn6c5-c5nccs5)cc4)CC3)n[nH]2)nc1` [Example 42, 6-(4-{[4-(5-pyridin-2-yl-1,2,4-triazol-3-yl)piperidin-1-yl]methyl}phenyl)-5-(1,3-thiazol-2-yl)imidazo[2,1-b][1,3]thiazole]: the IC50 in experiment [1] was below 1 µM.

Values taken from patent publication EP2062893A1, “Fused imidazoles for cancer treatment” (Bayer Schering Pharma AG, priority 2007, dated 2009).
